# “Also recorded” adds a separate entry of the source.
# B1: VEGF-C: parenteral recombinant human VEGF-C (R&D Systems Inc.), growth factor (protein, UniProt P49767 112-227, looked up)
# Vascular endothelial growth …: AHYNTEILKSIDNEWRKTQCMPREVCIDVGKEFGVATNTFFKPPCVSVYRCGGCCNSEGLQCMNTSTSYLSKTLFEITVPLSQGPKPVTISFANHTSCRCMSKLDVYRQVHSIIRR
# How the values were obtained:
# [1] = tested on: tail lymphedema in SKH-1 mice; assay: Histology and histomorphometric quantitation of epidermal thickness (Example 4); type: in vivo, mouse; details: for histological changes in mice with lymphedema: hematoxylin/eosin
# Description: Immediately after sacrifice, 0.5-g sections of tail were harvested for histological analysis and RNA extraction. Sections extended from a point 4 mm proximal to the surgical incision to 8 mm beyond it. The specimens were fixed overnight in 4% paraformaldehyde, embedded in paraffin, cut into 5-μm sections, stained with hematoxylin and eosin (Richard-Allan Scientific, Kalamazoo, Mich.), and examined by light microscopy.
# Epidermal thickness was measured serially using digital images of histology slides stained with hematoxylin and eosin. Processing and analysis were performed using Adobe Photoshop CS4 and ImageJ (http://rsbweb.nih.gov/ij) as previously described with modifications (Sanders J E, et al. Comput Methods Programs Biomed. 1999; 59:167-180). Quantitative measurements were imported to Prism 5 software (GraphPad Software Inc., La Jolla, Calif.) for statistical analysis and graphing.
# [2] = tested on: cytokine levels in tail skin; assay: Tissue cytokine assays (Luminex) in tail skin homogenates; type: in vivo, mouse
# Description: Cytokine levels in tail skin were measured in normal controls and mice with untreated, NSAID-treated, and sTNF-R1-treated lymphedema (n=3 per group) sacrificed on postoperative day 7. The Luminex LabMap200 System was used to measure the levels of 42 cytokines from the supernatant of tissue homogenates. Multiplex cytokine kits were purchased from Panomics (Fremont, Calif.), and the assay was performed according to the manufacturer's recommendation with the following modifications: 25-50 μl of samples, standards, and controls were added in duplicate to 96-well filter plates pre-configured with a panel of anti-cytokine antibodies covalently linked to unique polystyrene beads. The plate was incubated overnight at 4° C. in the dark with shaking at 500 rpm, vacuum aspirated, and washed three times with 140 μl of wash buffer to remove unbound antigen. Biotinylated detection antibody solution (25 μl) was added to each well and incubated for 1 hour with shaking at 500 rpm at room temperature. The plate was incubated with 50 μl of streptavidin-phycoerythrin for 35 minutes and then with 120 μl of reading buffer for 3 minutes at room temperature with shaking. After laser excitation, digital images of the bead array were captured with a CCD camera and analyzed on a computer workstation with BeadView software.
# [3] = tested on: TNF-α, MCP-1, VEGF-C, VEGF-D, VEGFR-3, Prox1, LYVE-1 expression; assay: Targeted gene expression analysis by quantitative real-time RT-PCR in tail skin; type: in vivo, mouse
# Description: Primers and probes were from Assays-on-Demand (Applied Biosystems, Foster City, Calif.). cDNA was synthesized from 5 μg of total RNA with Taqman reverse-transcription reagents (Applied Biosystems) and amplified in triplicate at 50° C. for 2 minutes and 95° C. for 10 minutes, followed by 40 cycles of 95° C. for 15 seconds and 60° C. for 1 minute. Reactions without template and/or enzyme were used as negative controls. 18S ribosomal RNA served as an internal control. A standard curve derived from embryonic mouse RNA was plotted for each target gene by linear regression using SPSS software (v. 11.0, Applied Biosystems). RNA quantity was expressed relative to the corresponding 18S control. Fold differences were calculated by dividing the experimental results by the pooled normal results and were plotted on a log 10 scale.
# [4] = tested on: tail lymphedema in SKH-1 mice; assay: Tail volume quantitation, NSAID / sTNF-R1 treatment (Example 4); type: in vivo, mouse
# Description: Tail lymphedema was induced in female hairless, immunocompetent SKH-1 mice (Charles River Laboratories, Boston, Mass.) as described. The mice were anesthetized with a solution of ketamine, xylazine, and saline (0.07 ml i.p.). The skin of the tail was circumferentially incised 16 mm distal to its base. The major lymphatic trunks were identified by subcutaneous injection of methylene blue distal to the incision and ablated by limited cautery. The mice were carefully monitored for any visceral signs of distress. Sham surgery controls were treated identically, but without lymphatic cautery. […] All mice were sacrificed in accordance with American Veterinary Medical Association guidelines for rodent euthanasia after day 11 days of observation. After sacrifice, 500 mg sections of the tail were harvested for paraffin embedding and RNA extraction. For all in vivo experiments, housing, husbandry and experimentation were in strict accordance with the Animal Welfare Act and the Guide for the Care and Use of Laboratory Animals.
# Sham surgery and normal controls were treated identically with the NSAID (n=8 per group), sTNF-R1 (n=11 per group), or PBS (n=11 normal controls, n=8 sham surgery controls).
# Tail volume was measured serially in each mouse, using a digital photographic application of the truncated cone approximation as described.
# [5] = Permeation through the stratum corneum of human cadaver skin; type: in vitro ADME; details: cumulative permeation over time, FIG. 33
# From the text: FIG. 33. Ketoprofen chemistry. (A) Chemical formula of ketoprofen. (B) Ester modification to improve bioavailability. […] Closed triangles: Methyl ester. Open circles: ethyl ester. Open squares: isopropyl ester. x axis=time in hours.
# Log Kow = type: physicochemical
# [6] = tested on: post-surgical lymphedema in the tails of SKH-1 mice; assay: Tail volume quantitation, VEGF-C in experimental lymphedema (Example 3); type: in vivo, mouse; details: single subcutaneous dose of 200 ng on post-surgical day 3
# Description: Post-surgical lymphedema was experimentally created in the tails of female hairless, immunocompetent SKH-1 mice (Charles River Laboratories, Boston Mass.) as described in example 1, above. Therapeutic VEGF-C lymphangiogenesis in experimental lymphedema. On post-surgical day 3, the treated animal subjects received parenteral recombinant human VEGF-C (R&D Systems Inc., Minneapolis, Minn.). Each animal received a single subcutaneous dose of 200 ng of the growth factor (2 mg/mL), equally divided between the proximal and distal wound edges. Untreated lymphedema subjects received subcutaneous saline analogously administered.
# Tail volume was serially quantitated in 19 mice divided into four treatment categories: normal, untreated lymphedema, VEGF-C-treated lymphedema, and surgical sham controls. For animals who had surgical intervention, this was defined to have occurred on day 0. All of the mice had quantitation of baseline tail volume; thereafter, volume was quantitated at defined time points: days 2, 4, 7, 9, 11, 14, 16, 18, 21, 23 28, 35, 42, 50, 57, 63, 65, 67 and 71. […] A single digital image of each tail was recorded with an OLYMPUS D520 Zoom digital camera at 1600×1200SHQ resolution. […] The diameter of the tail was digitally, serially quantitated at distances of 8 mm beginning at the proximal end of the tail. […]
# [7] = tested on: clearance of luc+ splenocytes from lymphedematous tails of FVB/N mice; assay: Functional in vivo bioluminescence imaging of immune traffic, VEGF-C study; design: species or system mouse
# Description: Experimental lymphedema was created surgically in the tails of 20 FVB/N female wild type mice (Jackson Laboratories, […]), using the technique described above, and functionally compared with normal mice (n=8). The lymphedematous mice were treated with human recombinant VEGF-C or with saline, as described above, on post-surgical day 3. For in vivo bioluminescence imaging, spleens from transgenic luc+ heterozygous animals, expressing firefly luciferase under the control of a chicken beta-actin promoter, as previously described (Beilhack et al., 2005; Cao et al., 2004), were placed into single cell suspension. These single cell suspensions consisted of different hematopoietic lineages: ˜40% were CD19+ B cells, ˜20% CD4+ T cells, ˜10-15% were CD8+ T cells, 3% NK1.1+ NK cells and the rest were GR.1+ granulocytes, Mac-1+ macrophages, CD11c+ dendritic cells and rarer cell populations. 4×10^6 splenocytes (>97% CD45+) in PBS were injected in a volume of […] into the tail interstitium/emission]×100%. 1 cm caudal to the site of surgery, in lymphedema mice and normal controls, respectively. […] The efficiency of cellular lymphatic drainage was determined by direct imaging of light emission, with quantitation of the relative change in light emission from that measured at 20 hours after cell injection, as follows: relative photon emission=[emissionday 7/emission20 hours]×100%.
# [8] = tested on: LYVE-1-positive lymphatic vessels; assay: LYVE-1 immunohistochemical staining, lymphatic vessel number and area; type: in vivo, mouse
# Description: 5 μm-thick paraffin sections were de-paraffinized in xylene, re-hydrated in a graded series of ethanol, pretreated with target retrieval solution (Dako, Carpinteria, Calif.) in a pressure cooker, and incubated in a peroxidase block for 10 minutes. Sections were then incubated with rabbit polyclonal anti-LYVE-1 antibody (1:200, Upstate Cell Signaling Solutions, Lake Placid, N.Y.) for 1 hour at room temperature, followed by horseradish peroxidase (HRP)-conjugated secondary antibody for 30 minutes at room temperature and detection with DAB for 4 minutes (Envision System Kit, Dako). Tissue sections were counterstained with Gill 1 Hematoxylin (Richard-Allan Scientific, Kalamazoo, Mich.). for 15 seconds, then dehydrated in graded ethanol and coverslipped with CoverSafe (American Master*Tech, Lodi, Calif.).
# 5 μm-thick paraffin sections were prepared and stained for LYVE-1 as described in example 1, above.
# Mean lymphatic vessel number was determined by averaging the number of total lymphatic vessels in all of the fields of each slide at 10× magnification. The observer was blinded to the treatment status of the animal in each case. Lymphedema was characterized by an increase in LYVE-1-positive vessel number/field that was not observed in normals or after VEGF-C-treatment: lymphedema, 7.3±4.0 (P=0.02 compared to normal); VEGF-C, 1.3±0.9 (N.S.); and normal, 1.0±0.8.
# Lymphatic vessel area was quantitated according to the formula π·r1·r2. […] Both vessel number and size returned substantially to normal following exogenous administration of recombinant VEGF-C.
# [9] = tested on: post-surgical lymphedema in the tails of SKH-1 mice; assay: Histology of tail sections (H&E), VEGF-C study; type: in vivo, mouse; details: day 11
# From the text: For histological evaluation, 11 mice were sacrificed on Day 11 of observation. Immediately following sacrifice, 0.5 gm sections of the tail were harvested. Sections extended from a point 4 mm proximal to the surgical incision to 8 mm beyond it. The specimens were fixed overnight in 4% paraformaldehyde. After paraffin embedding, 5 μm sections were stained with hematoxylin and eosin (H&E, Richard-Allan Scientific). After deparaffinization in xylene, sections were rehydrated though a series of graded alcohol steps starting with 100% EtOH and ending in 50% EtOH. Slides remained in toluidine blue for 2 minutes and were then dehydrated through graded alcohol washes and covered with Cytoseal (Richard Allan Scientific).
molecule,measurement,setting,value
pegsunercept [sTNF-R1],epidermal thickness (ET) compared to untreated LY mice,[1]; FIG. 14B,significantly increased
same,"epidermal thickness increased, compared to untreated mice with lymphedema",[1]; day 11,16.0±2.5%
same,histological changes in mice with lymphedema,"[1]; day 11, listed as sTNFR1",no discernible amelioration
same,histological changes in mice with lymphedema,"[1]; day 11, listed as sTNFR-1",exacerbates the pathology
same,MCP-1 tissue levels (protein),[2]; postoperative day 7,further increased
same,MCP-3 tissue levels (protein),[2]; postoperative day 7,significantly reduced
same,eotaxin tissue levels,[2]; postoperative day 7,decreased
same,MCP-3 tissue levels (protein),"[2]; postoperative day 7, listed as sTNFR-1",inhibited
same,expression of other targeted genes (other than TNF-α),[3]; day 11,did not affect other genes
same,TNF-α expression (mRNA),"[3]; day 11, lymphedema mice",reduced TNF-α expression to control levels; also recorded: downregulated
same,VEGF-C expression (mRNA),[3]; lymphedema mice,decreased
same,VEGFR-3 expression,[3]; lymphedema mice,decreased
same,"tail volume, % of baseline","[4]; day 7, lymphedema mice, s.c. every other day from day 3",183.7±26.8%
same,edematous response (tail volume) of lymphedema mice,"[4]; lymphedema mice, systemic s.c. treatment",significantly more edematous
same,effect on tail volume in normal and sham surgery mice,[4]; normal and sham surgery mice,no discernable effect
COC(=O)C(C)c1cccc(C(=O)c2ccccc2)c1 (centres unmarked) [ketoprofen methyl ester],ability to permeate the stratum corneum of human cadaver skin,[5],most penetration
same,Log Kow,Log Kow,3.65
CCOC(=O)C(C)c1cccc(C(=O)c2ccccc2)c1 (centres unmarked) [ketoprofen ethyl ester],Log Kow,Log Kow,4.14
CC(C)OC(=O)C(C)c1cccc(C(=O)c2ccccc2)c1 (centres unmarked) [ketoprofen isopropyl ester],Log Kow,Log Kow,4.56
B1,mean tail volume compared with untreated lymphedema,[6],"significant decrease in volume; also recorded: diminution in the mean tail volume; also recorded: volume reduction, compared with untreated lymphedema, was evident by day 7"
same,clearance of bioluminescent immunocytes (immune traffic),[7]; day 7 post-injection,ameliorated
same,"relative photon density, % of the observed value 20 hours post-injection","[7]; day 7 post-injection (post-operative day 14), n=12",24±9%
same,LYVE-1-positive vessel number/field,"[8]; 10x magnification, day 11",1.3±0.9
same,average lymphatic area/field (LYVE-1-positive vessel area),"[8]; formula π·r1·r2, n=3",2992±1311 μm^2
same,size and number of LYVE-1-positive skin lymphatics,[8]; vs untreated lymphedema,reduction in the observed size and number of these skin lymphatics; also recorded: reduction in the number and size of LYVE-1-positive vessels
same,histological pattern of tail tissue,[9],substantial reversion to the normal pattern
